“Also recorded” adds a separate entry of the source.
Key:
[1] = tested on: HL-60 cell line; assay: Cell physiology assay plate 1a (MBBR, CALCEIN AM, MITOSOX RED, SYTOXRED, light scatter) by flow cytometry; format: cell-based, human
Description: (§1) Cells were deposited into 384 well plates (1×10^6 cells in 40 μl tissue culture media) and serial dilutions of test compounds (or vehicle in the case of controls) were deposited in individual wells using standard robotic techniques. Compound deposition and dilution was performed by BIOMEK FX (5 or 10 step dilutions from 100 to 0.005 μM). Dilutions were prepared from stock solutions of compounds dissolved initially in 100% DMSO. Final volume deposited into each well is 2 μl of each compound dilution (compounds are in a final concentration of 1% DMSO). After incubation in a tissue culture incubator (5% CO2 at 37° C.) for varying periods of time (typically 4 hours), plates were centrifuged at room temperature, followed by removal of 20 μl supernatant fluid, After vibration of the plate to re-suspend cells, a dye mix (Plate in Monobromobimane, CALCEIN AM, MITOSOX™ and SYTOSOX™ RED; plate 1b VYBRANVIOLET™ Live Cell Cycle dye, JC-9, and SYTOSOX™ RED) was added in a total volume of 20 μl, followed by an additional mixing step.
Data was acquired using a CYAN™ flow cytometer, with the […]™ software used to compile files for each well on an individual plate using an FCS format. Data for each plate was subsequently analyzed for several quality assurance parameters (total number of events per well, numbers of events associated with morphologically normal events, number of dead cells), as described below.
Flow cytometric analyses of intrinsic cell properties (forward light scatter and light scattered orthogonal to the laser beam) and fluorescence signals derived from the dyes listed in Table 1 was carried out for plates 1a and 1b.
MITOSOX™ RED is a compound that can diffuse into viable cells and reacts with superoxide anion species, particularly products of mitochondrial respiration; conditions such as cell stress can cause mitochondria to respond (sometimes rapidly) by increasing respiration and/or release superoxide anions; and
(3) SYTOXRED™ to measure cell viability (loss of nuclear membrane integrity). SYTOXRED™ is a high-affinity DNA stain that can only pass through the cytoplasmic and nuclear membranes of cells which have lost the integrity of both membranes; thus, brightly fluorescent cells are dead.

[2] = tested on: human peripheral blood monocytes; assay: Kinetics of signal transduction responses to LPS in whole blood monocytes, flow cytometry of fixed and permeabilized cells; format: cell-based; details: LPS in the presence of the inhibitor, compared to LPS alone
[3] = tested on: HL-60 cells; assay: Mitochondrial membrane potential (MMP) with JC-9, red and green fluorescence, flow cytometry; format: cell-based, human
Description: as §1, with “step. Plates were returned to the tissue culture incubator (5% CO2 at 37° C.) for an additional 15 min (plate 1a) or 30 min (plate 1b), followed by immediate analysis using the […]-CYAN™.” for “step.”
Each well of the 384 wellplate was sampled with a 6 second sip time, plus 1 second delay between wells, resulting in a total read time for each plate of approximately 45 minutes. Data was acquired using a CYAN™ flow cytometer, with the […]™ software used to compile files for each well on an individual plate using an FCS format. Data for each plate was subsequently analyzed for several quality assurance parameters (total number of events per well, numbers of events associated with morphologically normal events, number of dead cells), as described below.
Measurements identical to those described in Example 2 above were made using a second combination of dyes:
(2) JC-9 to measure mitochondrial membrane potential (MMP); and
The measurement of mitochondrial membrane potential (MMP) with JC-9 was performed with two independent fluorescence channels (green and red fluorescence signals), as changes in MMP cause aggregation of the dye, with different fluorescence emission by the aggregated versus non-aggregated dye molecules. […] At higher valinomycin concentrations, red fluorescence […]. A unique aspect of this assay is that it correlates changes in MMP (JC-9) and cell death (SYTOXRED™) with the phases of the cell cycle (G1, S, and G2M).

[4] = tested on: K562 cells; assay: Cell cycle measured by DNA content in K562 cells; format: cell-based, human; details: 30 min exposure, listed as imatinib
Description: Cells were deposited onto dilutions of test compounds deposited into individual wells of 96 well plates, as indicated above. […] Following 15 min incubation (at 37° C.?), cells were pelleted by centrifugation, supernatant removed, and the cells were suspended by vibrating the plate.
Cell were permeabilized by adding 150 μl cold absolute methanol, followed by incubation at 4° C. for 15 minutes. Permeabilized cells were centrifuged, supernatant removed, and cells were washed three times with cold (4° C.) PBS containing 4% FBS. Following the final wash, cells were centrifuged, the supernatant was removed, and cells were re-suspended in an antibody cocktail (total volume 20 μl) appropriate for that experiment.

[5] = HL-60 cells, concentration series
[6] = HL-60 cells, increasing concentration
[7] = 33 μM, population with altered morphology, compared to cells with normal morphology
[8] = 33 μM, population with normal morphology

CNCCC(Oc1ccc(C(F)(F)F)cc1)c1ccccc1 (stereo not shown) [fluoxetine]
cells that have lost "normal morphology" ([1]; 100 μM): Approximately 30%
GSH (MBBR) ([1]; 100 μM, affected cells): reduced
ROS (MITOSOX RED) ([1]; 100 μM, affected cells): increased

CS(=O)(=O)N1CCN(Cc2cc3nc(-c4cccc5[nH]ncc45)nc(N4CCOCC4)c3s2)CC1 [GDC0941]
kinetics of ERK phosphorylation [2]: delayed

CC(C)[C@@H]1NC(=O)[C@H](C)OC(=O)[C@@H](C(C)C)NC(=O)[C@@H](C(C)C)OC(=O)[C@H](C(C)C)NC(=O)[C@H](C)OC(=O)[C@@H](C(C)C)NC(=O)[C@@H](C(C)C)OC(=O)[C@H](C(C)C)NC(=O)[C@H](C)OC(=O)[C@@H](C(C)C)NC(=O)[C@@H](C(C)C)OC1=O [valinomycin]
concentration at which red and green JC-9 fluorescence peak [3, 5]: ~0.045 µM
concentration of peak green JC-9 fluorescence [3, 5]: ~0.05 µM
JC-9 green fluorescence [3, 6]: significantly higher; also recorded: initially increase
JC-9 red fluorescence [3, 6]: significantly higher; also recorded: initially increase
JC-9 red/green fluorescence ratio ([3]; at higher concentrations (above green peak)): increasing

N#CC(C#N)=NNc1ccc(OC(F)(F)F)cc1 [FCCP, carbonyl cyanide-4-(trifluoromethoxy)phenylhydrazone]
CALCEIN [1, 7]: increased
GSH [1, 7]: reduced
ROS [1, 7]: increased
SYTOXRED [1, 7]: higher
CALCEIN AM level [1, 8]: normal
GSH level [1, 8]: normal
ROS (indicator of mitochondrial stress) [1, 8]: increased
nuclear and cytoplasmic membranes (SYTOX Red uptake) [1, 8]: intact
cell morphology ([1]; 33 μM, second distinct population (light blue)): altered

Cc1ccc(NC(=O)c2ccc(CN3CCN(C)CC3)cc2)cc1Nc1nccc(-c2cccnc2)n1 [GLEEVEC™]
change in the cell cycle, as measured by DNA content [4]: no concomitant change

CC(=O)[C@]1(O)Cc2c(O)c3c(c(O)c2[C@@H](O[C@H]2C[C@H](N)[C@H](O)[C@H](C)O2)C1)C(=O)c1ccccc1C3=O [idarubicin]
JC-9 red fluorescence versus untreated control cells ([3]; HL60 cells, 1.23 μM): significantly higher
concentration at which red fluorescence of JC-9 begins to increase significantly ([3]; HL60 cells, concentration series): 1.23 µM
JC-9 green fluorescence [3, 6]: does not increase

CO/C(=C/C(N)=O)[C@H](C)[C@H](/C=C/c1csc(-c2csc([C@@H](C)/C=C/C=C/C(C)C)n2)n1)OC [myxothiazol]
CALCEIN AM (cytoplasmic membrane permeability) ([1]; 100 μM, affected cells): decrease
GSH (MBBR) ([1]; 100 μM, affected cells): decrease
ROS (MITOSOX RED) ([1]; 100 μM, affected cells): increase
SYTOXRED (cytoplasmic and nuclear membrane permeability, viability) ([1]; 100 μM, affected cells): increase
cell morphology (light scatter) ([1]; 100 μM, affected cells): significant change
SYTOXRED (cytoplasmic and nuclear membrane permeability, viability) ([1]; 100 μM, affected cells, listed as myxothiozol): perturbs
